From PubChem BioAssay (NCI)
Values joined by “and” are separate entries in the source; they are usually repeats but may differ in a detail not shown here. Equal entries are not always repeated.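 Compound exposure: 48 hours, 5 concentrations, 96-well plates. At the GI50, growth is halved. Definition used: TGI = concentration required for complete inhibition of growth.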

How the values were obtained:
Experiment in all cases: inhibition of tumour cell growth, NCI panel, 48 h
CAKI-1 renal = test system: CAKI-1 renal
MCF7 breast = test system: MCF7 breast
MDA-MB-435 = test system: MDA-MB-435
NCI-H522 lung = test system: NCI-H522 lung
OVCAR-3 ovarian = test system: OVCAR-3 ovarian
RPMI-8226 leukemia = test system: RPMI-8226 leukemia
SF-539 CNS = test system: SF-539 CNS
SK-OV-3 ovarian = test system: SK-OV-3 ovarian
SNB-19 CNS = test system: SNB-19 CNS
SW-620 colon = test system: SW-620 colon

SMILES | TGI (CAKI-1 renal) | TGI (MCF7 breast) | TGI (MDA-MB-435) | TGI (NCI-H522 lung) | TGI (OVCAR-3 ovarian) | TGI (RPMI-8226 leukemia) | TGI (SF-539 CNS) | TGI (SK-OV-3 ovarian) | TGI (SNB-19 CNS) | TGI (SW-620 colon) | GI50 (CAKI-1 renal) | GI50 (MCF7 breast) | GI50 (NCI-H522 lung) | GI50 (OVCAR-3 ovarian) | GI50 (RPMI-8226 leukemia) | GI50 (SF-539 CNS) | GI50 (SNB-19 CNS)
C/C(=N\NC(=S)N/N=C(\C)c1ccccn1)c1ccccn1 | 5.24 µM | > 100 µM | > 100 µM | > 100 µM | > 100 µM | > 100 µM | 8.83 µM | > 100 µM | > 100 µM | > 100 µM |  |  |  |  |  |  | 
COC(=O)/C=C1\C(=O)N(C(C)=O)c2ccccc21 | 0.184 µM | 28.2 µM | 32.2 µM | 15.6 µM | 23 µM | 47.6 µM | > 46.4 µM | 29.7 µM | > 51.9 µM | > 100 µM |  |  |  |  |  |  | 
NCCCCN(CCCN)C(=O)OCc1ccccc1 | > 100 µM | > 100 µM | > 100 µM | > 100 µM | > 100 µM | > 100 µM | > 100 µM | > 100 µM | > 100 µM | > 100 µM |  |  |  |  |  |  | 
O=C1NC(N2CCOCC2)=N/C1=C\c1ccccc1 | > 100 µM | > 100 µM | > 100 µM | > 100 µM | > 100 µM | > 100 µM | > 100 µM | > 100 µM | > 100 µM | > 100 µM |  |  |  |  |  |  | 
NC(=O)c1ccc(N)nc1 | > 400 µM | > 400 µM | > 400 µM | > 400 µM | > 400 µM | 201 µM | 28.3 µM | > 400 µM | > 400 µM | > 400 µM |  |  |  |  |  |  | 
CCCCc1ccc(Nc2nc(N)c3[nH]cnc3n2)cc1 | 37.7 µM | 42.4 µM | 40.6 µM | 28.8 µM | 51.9 µM | 77.5 µM | 43.4 µM | 52.7 µM | 37.8 µM | 63.6 µM |  |  |  |  |  |  | 
CCOC(=O)n1c2ccccc2c2c(O)c(OC)c3c(c21)C(=O)NC3=O | 64.7 µM | > 100 µM | > 100 µM | > 100 µM | > 100 µM | > 100 µM | > 100 µM | > 100 µM | > 100 µM | > 100 µM |  |  |  |  |  |  | 
COC(=O)c1ccc2c(c1)CCN2C(=O)c1cc2c(cc1Br)OCO2 | 50 µM and > 100 µM | 50 µM and > 100 µM | 0.994 µM | 0.4 µM and 0.29 µM | 3.99 µM and 1.43 µM |  |  | > 100 µM | 12.8 µM and > 100 µM | 50 µM and > 100 µM | 0.953 µM | 0.567 µM | 0.0801 µM | 0.363 µM | 1.15 µM | 2.93 µM | 1.31 µM
O=c1[nH]/c(=C/c2cccs2)c(=O)[nH]/c1=C/c1ccc(OCc2ccccc2)cn1 | 8.35 µM | 39.6 µM | 0.0182 µM | 0.0998 µM | 0.0382 µM | > 43.2 µM | 12.5 µM | 16.1 µM | > 46.2 µM | > 100 µM |  |  |  |  |  |  | 
CS(=O)(=O)c1ccc(C2=C(c3ccccc3)C(=O)OC2)cc1 | > 100 µM | > 100 µM | > 100 µM | > 100 µM | > 100 µM | > 100 µM | > 100 µM | > 100 µM | > 100 µM | > 100 µM |  |  |  |  |  |  | 
